The nature of this test: Agonist activity as induced proliferation in Ba/F3-hTpoR murine lymphocyte expressing human TPOR.

Each structure is given as a SMILES string.

By EC50 is commonly meant the concentration needed to bring the measured effect to its halfway point. `CC(C)(C)c1ccc(-c2cccc(-c3nc4ccc(CC(C(=O)O)C(=O)O)cc4[nH]3)n2)cc1` [2-((2-(6-(4-tert-butylphenyl)pyridin-2-yl)-1H-benzo[d]imidazol-5-yl)methyl)malonic acid] had a concentration for a half-maximal effect (EC50) of 10 µM.
The result for `CC(=Cc1ccc2nc(-c3cccc(-c4ccc(C(C)(C)C)cc4)n3)[nH]c2c1)C(=O)O` [3-(2-(6-(4-tert-butylphenyl)pyridin-2-yl)-1H-benzo[d]imidazol-5-yl)-2-methylacrylic acid] reads 4.5 µM.
Turning to `Cc1ccc(-c2csc(-c3nc4ccc(C=C5SC(S)=NC5=O)cc4[nH]3)c2)cc1C` [5-((2-(4-(3,4-dimethylphenyl)thiophen-2-yl)-1H-benzo[d]imidazol-5-yl)methylene)-2-thioxothiazolidin-4-one], the half-maximal effective concentration (EC50) turned out to be 0.78 µM.
With `Cc1ccc(-c2ccc(-c3nc4ccc(C=C5SC(S)=NC5=O)cc4[nH]3)s2)cc1C` [5-((2-(5-(3,4-dimethylphenyl)thiophen-2-yl)-1H-benzo[d]imidazol-5-yl)methylene)-2-thioxothiazolidin-4-one] the figure was 1.75 µM; with `CC(C)(C)c1ccc(-c2ccc(-c3nc4ccc(C=C5SC(=S)NC5=O)cc4[nH]3)o2)cc1` [5-((2-(5-(4-tert-butylphenyl)furan-2-yl)-1H-benzo[d]imidazol-5-yl)methylene)-2-thioxothiazolidin-4-one], 0.72 µM; with `Cc1ccc(-c2cccc(-c3nc4ccc(C=C5SC(S)=NC5=O)cc4[nH]3)n2)cc1C` [5-((2-(6-(3,4-dimethylphenyl)pyridin-2-yl)-1H-benzo[d]imidazol-5-yl)methylene)-2-thioxothiazolidin-4-one], 1.6 µM.
The result for `CC(C)(C)c1ccc(-c2cccc(-c3nc4ccc(C=C5SC(S)=NC5=O)cc4[nH]3)n2)cc1` [5-((2-(6-(4-tert-butylphenyl)pyridin-2-yl)-1H-benzo[d]imidazol-5-yl)methylene)-2-thioxothiazolidin-4-one] reads 2 µM; that for `CC(C)(C)c1ccc(-c2cccc(-c3nc4ccc(C=C5SC(=S)NC5=O)cc4[nH]3)c2)cc1` [5-[1-[2-(4'-tert-Butyl-biphenyl-3-yl)-1H-benzoimidazol-5-yl]-methylidene]-2-thioxo-thiazolidin-4-one], 0.9 µM.

These data come from BindingDB's records for doi:10.1016/j.bmcl.2005.11.096 (Glaxosmithkline, 2006).
